Reference: patent US8133685B2, “AMPK modulation as a method of regulating stem cell and cancer stem cell proliferation, self-renewal and differentiation” (Washington University, priority 2008, dated 2012)

Columns and labels:
[1] = system: Neural Stem and Progenitor cells (NPCs); test: NPC proliferation: count of trypan blue negative (live) cells after 48 hours of growth; format: cell-based, mouse; conditions: E12.5 forebrain wildtype NPCs, vs DMSO, p<0.001
Procedure: FIG. 26. […] Embryonic day 12.5 forebrain wildtype NPCs were cultured for 4 days and seeded as single cells in presence of DMSO (control), or the AMPK inhibitors Compound C (10 μM) and Adenine 9-β-D-arabinofuranoside (Ara A 1 mM). Following 48 hours of growth in medium supplemented with EGF ([…]) and bFGF ([…]), neurospheres were trypsinized and trypan blue negative (live) cells were counted on a hemocytometer. * p<0.001
Neurospheres were dissected from E12.5 CNS telencephalic lobes and cultured in neurobasal medium supplemented with B27 and N2, as described previously (Dasgupta, B. and Gutmann, D. H., J. Neurosci. 25, 5584-5594, 2005). […] At each time point, resulting neurospheres were trypsinized and counted on a hemocytometer. For self-renewal assays, single neurospheres were picked up by pipette and neurosphere diameter was measured individually under microscope. Ten similar-sized neurospheres of each genotype were triturated individually before plating, and the number of resulting secondary neurospheres generated per primary neurosphere was counted after 6 days. Neurosphere diameters were measured using Metamorph software. […] Briefly, NPCs were pulse labeled with […] CFSE at 37° C. for 15 min, washed, and one-half of the cells were analyzed by FACS, while the other half was analyzed after 4 days of growth. […]

AMPK holoenzyme = test: Nonradioactive in vitro kinase assay: immunoprecipitated AMPK holoenzyme phosphorylating recombinant Rb fusion protein (residues 701-928); format: biochemical, mouse; conditions: AMPK immunoprecipitated from WT NPCs, phospho-Rb800/804 immunoblot
Procedure: Nonradioactive in vitro kinase assay was performed as previously described (Lee et al., Nature 447, 1017-1020, 2007), with minor modifications. Briefly, WT NPCs were lysed with MAPK buffer, and AMPK was immunoprecipitated from WT NPCs with AMPKα1/2 antibody, washed with a buffer containing 10 mM Tris-Hcl (pH 7.5) and 0.5 M LiCl, and suspended in kinase buffer containing 0.5 mM ATP. CyclinD1/D2 (associated with CDK4/6) was immunoprecipitated with cyclinD1 and cyclinD2 antibodies. Reactions were carried out at 30° C. for 1 hr by adding RB-C fusion protein (residues 701-928; Cell Signaling Technology, Beverly, Mass.) to the reaction mix. Reaction was terminated by adding 6× Laemmli buffer and boiling for 5 min. Samples were resolved in 10% SDS-PAGE, and Western blot analysis was performed with phospho-RbSer^800/804 (Ser^807/811 in human) antibody (Cell Signaling Technology).
The CDK-cyclin D complex is known to phosphorylate Rb at Ser804. […] CDK4/6, which exist in complexes with cyclinD1/D2, were immunoprecipitated using cyclin D1/2 antibodies, and the activity was measured by nonradioactive in vitro kinase assays using bacterially produced Rb fusion protein (residues 701-928) as the substrate. […] In these experiments, phosphorylation was monitored by immunoblot using phosphor-Rb800/804 antibody. […]

AMPK = test: Immunoblot of pAMPK and pRb in WT NPCs after growth factor (EGF and FGF) withdrawal and re-administration; format: cell-based, mouse; conditions: growth factors withdrawn 2 h, re-administered 1 h in presence of compound C (CC; 5 mM per FIG. 54 legend)
Excerpt: FIG. 54. This figure illustrates that energy restriction and growth factor signaling utilize the AMPK-Rb axis to enhance NPC proliferation. […] (B and C) Proliferation assay of WT NPCs (B) and β1−/−NPCs (C) cultured for 48 hr under glucose-limiting conditions (Cont=25 Mm glucose, which is the amount in neurobasal medium). Data are representative of three independent experiments (#p=0.07; *p % 0.005). Error bars indicate SD. (D and E) Densitometric analysis using phospho-specific AMPKα^Thr172, Rb^Ser800/804, ACC^Ser79, and pan AMPKα, Rb, and ACC antibodies. AU, arbitrary units.
Cultured NPCs or MEFs were lysed with MAPK lysis buffer (20 mM Tris-HCL, pH 7.5, 150 mM, NaCl, 1 mM EGTA, 1 mM EDTA, 1% TritonX-100, 2.5 mM sodium pyrophosphate, 1 mM β-glycerophosphate, 1 mM sodium vanadate, 1 mM PMSF, 1 mM DTT and protease inhibitor cocktail). AMPK was immunoprecipitated with AMPKα1/2 antibody (Cell Signaling Technology), Rb was immunoprecipitated with Rb antibody (Santa Cruz Biotechnology, Santa Cruz, Calif.) and cyclinD1/D2 (associated with CDK4/6) was immunoprecipitated with CyclinD1 and CyclinD2 antibodies (Cell Signaling Technology). […] The immunoprecipitated proteins were analyzed by standard immunoblot analysis. […]

WT NPCs = test: Proliferation assay of WT NPCs cultured 48 hr under glucose-limiting conditions; format: cell-based, mouse; conditions: 2.5-25 mM glucose
Procedure: FIG. 54. This figure illustrates that energy restriction and growth factor signaling utilize the AMPK-Rb axis to enhance NPC proliferation. (A) Densitometric analysis of WT NPCs using indicated antibodies after 2-hr growth factor stimulation in the presence or absence of AMPK inhibitor compound C (CC; […]). (B and C) Proliferation assay of WT NPCs (B) and β1−/−NPCs (C) cultured for 48 hr under glucose-limiting conditions (Cont=25 Mm glucose, which is the amount in neurobasal medium). Data are representative of three independent experiments (#p=0.07; *p % 0.005). Error bars indicate SD. […]
Neurospheres were dissected from E12.5 CNS telencephalic lobes and cultured in neurobasal medium supplemented with B27 and N2, as described previously (Dasgupta, B. and Gutmann, D. H., J. Neurosci. 25, 5584-5594, 2005). […] At each time point, resulting neurospheres were trypsinized and counted on a hemocytometer. For self-renewal assays, single neurospheres were picked up by pipette and neurosphere diameter was measured individually under microscope. Ten similar-sized neurospheres of each genotype were triturated individually before plating, and the number of resulting secondary neurospheres generated per primary neurosphere was counted after 6 days. Neurosphere diameters were measured using Metamorph software. […]

Rb-E2F1 = test: Immunoprecipitation with Rb antibody and Western blot with E2F1 antibody from NPCs; format: cell-based, mouse; parameters: dose or concentration left out as unconfirmed; conditions: NPCs grown in indicated glucose concentration
Procedure: FIG. 56. This figure illustrates that energy restriction and growth factor signaling utilize the AMPK-Rb axis to enhance NPC proliferation. (A) Immunoprecipitation assay using Rb antibody and Western blot with E2F1 antibody from NPCs grown in the indicated glucose concentration in the absence or presence of CC ([…]). (B) Immunohistochemistry of saggital sections of E14.5 wildtype and β1−/− body using pHistoneH3 antibody (red).
Cultured NPCs or MEFs were lysed with MAPK lysis buffer (20 mM Tris-HCL, pH 7.5, 150 mM, NaCl, 1 mM EGTA, 1 mM EDTA, 1% TritonX-100, 2.5 mM sodium pyrophosphate, 1 mM β-glycerophosphate, 1 mM sodium vanadate, 1 mM PMSF, 1 mM DTT and protease inhibitor cocktail). […] The immunoprecipitated proteins were analyzed by standard immunoblot analysis. […]
AMPK is integrally involved in regulating cellular energy homeostasis and is activated by low cellular ATP levels, such as occurs by limiting oxygen or glucose supplies or exercise, conditions that enhance proliferative capacity of stem cells (Burgers et al., Exp. Brain Res. 188, 33-43, 2008; Fu et al., Diabetologia 49, 1027-1038, 2006; Stolzing et al., Rejuvenation Res. 9, 31-35, 2006). To explore whether the proliferative effects of glucose restriction are manifested through activation of the AMPK-Rb axis, we monitored the growth of WT NPCs cultured in 2.5-25 mM (the amount present in neurobasal medium) glucose for 48 hr. […]

Nc1ncnc2c1ncn2[C@@H]1O[C@H](CO)[C@@H](O)[C@@H]1O [Ara A, Adenine 9-β-D-arabinofuranoside]
proliferation of NPCs (live cell count) ([1]; 1 mM): drastically reduces proliferation

c1cc(-c2cnn3cc(-c4ccc(OCCN5CCCCC5)cc4)cnc23)ccn1 [Compound C, 6-[4-(2-piperidin-1-ylethoxy)-phenyl]-3-pyridin-4-ylpyrazolo[1,5-α]pyrimidine]
AMPK phosphorylation of Rb at Ser804 (AMPK holoenzyme): could be inhibited | increase in phosphoAMPK (pAMPK Thr172) on EGF and FGF re-administration (AMPK): no increase | increase in phosphoRb (Ser800/804) on EGF and FGF re-administration (AMPK): no increase | proliferation of NPCs (live cell count) ([1]; 10 μM): drastically reduces proliferation | NPC growth stimulation by low glucose (WT NPCs): not observed | neurosphere growth (WT NPCs): severely inhibited | Rb sequestration of E2F1 (Rb-bound E2F1) (Rb-E2F1): higher levels
